The results in this text go back to patent US20250382256A1, “DICARBOXYLIC ACID DIESTERS” (DSM IP Assets B.V., priority 2018, published 2025).

As usually defined, the inhibition is the change of the read-out against control, counted positive when it falls.

Where a name gives a salt, the structure may show the parent alone. Read-outs that look alike come from different tables or passages of the source.

The subject of one data set is rumen liquor. Kind of data set: In vitro test for methane production (modified Hohenheim Forage value Test, HFT). The settings on record: read-out: Methane inhibition. In kind it is cell-based. As for the experimental part:
A modified version of the “Hohenheim Forage value Test (HFT)” was used for testing the effect of specific compounds on the rumen functions mimicked by this in-vitro system. Principle: Feed (i.e. a TMR) (300 mg) is given into a syringe with a composition of rumen liquor and an appropriate mixture of buffers (i.e. rumen-fluid buffer mix: 25 ml) and the substances to be tested in the concentrations as outlined in table 2 (the inhibitors to be tested are diluted in ethanol to reach the respective concentration of dry matter in 50 μl). The solution is incubated at 39° C. for 8 h. The quantity of produced gas is measured and put into a formula for conversion. After the incubation the composition of gas is measured with a GC. TMR (44% concentrate, 6% hay, 37% maize silage and 13% grass silage) is sieved to 1 mm and weighed exactly into the syringes. One run contains 4 repetitions, each with 16 syringes and comprises substrate controls, which display the gas production without the effect of the tested compounds, carrier controls, which display the gas production in the presence of the carrier (solvent) only (i.e. EtOH used to dissolve the test compounds), and test samples (in the carrier), which contain the test substances in varying concentrations as outlined in table 2. The components are mixed in a Woulff bottle in following order: • 711 ml water • 0.18 ml trace element solution • 355.5 ml buffer solution • 355.5 ml mass element solution The completed solution is warmed up to 39° C. followed by the addition of 1.83 ml sodium salt solution and the addition of reduction solution at 36° C. The rumen liquor (750 ml) is added, when the indicator turns colorless under continued agitation and CO2-gassing. The rumen-fluid-buffer-mix is added to the glass syringe prepared as outlined above containing the TMR and the active to be tested. The syringes are then incubated for 8 hours at 39° C. under gentle agitation. After 8 the volume of gas produced is measured, and the percentage of methane in the gas phase is determined by gas chromatography.

Data set [1] is described as follows: Vapor pressure of the purified diester. In kind it is physicochemical. The conditions noted are these: purified product.

As to `O=C(CC(=O)OCCCO[N+](=O)[O-])OCCCO[N+](=O)[O-]` [(I-a), bis(3-(nitrooxy)propyl) malonate], in the data set on rumen liquor (8 h), the inhibition at 2.5 µM was 72%, the inhibition at 5 µM was 97% and the inhibition at 10 µM was 99%. The vapor pressure in data set [1] was found to be 0.00133 mbar.

With `O=C(/C=C/C(=O)OCCCO[N+](=O)[O-])OCCCO[N+](=O)[O-]` [(I-b), bis(3-(nitrooxy)propyl) fumarate], in the data set with rumen liquor (8 h), the inhibition at 5 µM came to 96% and the inhibition at 10 µM was found to be 99%. In data set [1], this compound returned a vapor pressure of 0.00133 mbar.

With `O=C(CCC(=O)OCCCO[N+](=O)[O-])OCCCO[N+](=O)[O-]` [(I-c), bis(3-(nitrooxy)propyl) succinate], the inhibition at 10 µM in the data set with rumen liquor (8 h) was found to be 99%. The same compound returned a vapor pressure in data set [1] of 0.00133 mbar.

On to `O=[N+]([O-])OCCCO` [Ref, 3-nitrooxypropanol, reference compound], for which, in the data set on rumen liquor (2.5 μmol/l, 8 h at 39° C., TMR in rumen-fluid buffer mix, reduction versus substrate control), the inhibition at 2.5 µM came to 32%. Moreover, the inhibition at 5 µM in the data set on rumen liquor (5 μmol/l, 8 h at 39° C., TMR in rumen-fluid buffer mix, reduction versus substrate control) was 86%. Besides, the inhibition at 10 µM in the data set on rumen liquor (10 μmol/l, 8 h at 39° C., TMR in rumen-fluid buffer mix, reduction versus substrate control) came out at 99%.
